# Reference: patent US20250281480A1, “PHARMACEUTICAL DRY POWDER INHALATION FORMULATION” (Bayer Aktiengesellschaft, priority 2021, published 2025)
# What was measured:
# [1] = Micronization of monohydrate II and monohydrate I (spiral jet mill): solid form after micronization; assay type: physicochemical
# Excerpt: Generally no amorphization even partial nor form conversion should happen during the necessary micronization step.
# The corresponding batches (examples 8a-8d) were micronized using a 50 mm spiral jet mill and pressurized nitrogen with the following parameters (see table 16b).
# The corresponding batches were micronized using a 100 mm spiral jet mill and pressurized nitrogen with the following parameters (see table 16c).
# healthy male subjects = assay: Phase I, healthy male subjects, 7 days: bodyplethysmography, total specific airway resistance (sRaw); assay type: in vivo, human
# Method: (§1) Healthy White male subjects, aged 18 to 45 years and with a body mass index (BMI) above/equal 18.5 and below/equal 29.9 kg/m2 were treated in a clinical pharmacological phase I study on seven days with inhaled once daily doses of 480 or 1000 or 2000 μg (2 capsules of 1000 μg) (nominal dose) of dry powder formulations of example 2 or Placebo. The subjects inhaled the drug powder from capsules (see under C, e.g. tables 22 and 23) inserted into a handheld inhalation device by one deep inhalative breath. The dry powder formulation of the drug is dispersed into the airstream and fine particles are transported into the deep parts of the lung where it is intended to cause a vasodilation of the blood vessels in PH patients for a substantial reduction of increased blood pressure in the central pulmonary blood vessels in PAH patients or other subtypes of PH. This effect cannot be shown in subjects with healthy lungs. In addition inhaled drug causes a dilation of the bronchial airways and thus also improves disease states of lung diseases in PH patients with pathological bronchoconstriction. This effect was measured via bodyplethysmography as reduction of Specific Airway Resistance in healthy subjects. […]
# [2] = tested on: anesthetized PAH minipigs; assay: PAH minipig, intratracheal application of dry powder formulations and of different hydrates (PAP, BP); assay type: in vivo, Göttingen Minipigs; conditions: 375 μg/kg i.t.
# Method: Healthy Göttingen Minipigs® Ellegaard (Ellegaard, Denmark) of both sexes and having a weight of 2-6 kg were used. The animals were sedated by i.m. administration of about 25 mg/kg ketamine and about 10 mg/kg azaperone. Anaesthesia was initiated by i.v. administration of about 2 mg/kg ketamine and about 0.3 mg/kg midazolam. Maintenance of anaesthesia was by i.v. administration of about 7.5-30 mg/kg/h ketamine and about 1-4 mg/kg/h midazolam (rate of infusion 1-4 ml/kg/h) and about 150 μg/kg/h pancuronium bromide (for example Pancuronium-Actavis). After intubation, the animals were ventilated by the ventilator at a constant respiratory volume (10-12 ml/kg, 35 breaths/min; Avea®, Viasys Healthcare, USA, or Engström Carestation, GE Healthcare, Freiburg, Germany) such that an end-tidal CO2 concentration of about 5% was achieved. Ventilation was performed with room air, enriched with about 40% oxygen (normoxia). For the measurement of the haemodynamic parameters such as pulmonary arterial pressure (PAP), blood pressure (BP) and heart rate (HR), catheters were inserted into the carotid artery to measure the blood pressure, and a Swan-Ganz® catheter was introduced in a flow-directed manner via the jugular vein into the pulmonary artery. The haemodynamic signals were recorded and evaluated by means of pressure transducers (Combitransducer, B. Braun, Melsungen, Germany)/amplifiers and Ponemah® as data acquisition software.
# About 0.3-0.75 μg/kg/min of 9,11-didesoxy-9α,11α-epoxymethanoprostaglandine F2α (U-44069; Sigma, cat. no. D0400, or Cayman Chemical Company, cat. no. 16440), dissolved in physiological saline, were infused to achieve an increase of the mean pulmonary arterial pressure to values of over 25 mmHg.
# After characterization of the effects of comparative example 11 after nebulization of compound solutions, in a further step the effects of crystalline forms of comparative example 11, e.g. sesquihydrate, e.g. example 6e on PAP and BP after inhaled application of different dry powder lactose formulations (table 52) were studied in anesthetized PAH minipigs.
# As reference pure Lactose vehicle was applied in the beginning of each experiment.
# [3] = Phase I, healthy male subjects, 7 days: plasma concentrations over time; assay type: in vivo, human; conditions: after first inhalation, all doses
# Method: as §1
# cGMP = assay: Phase I, healthy male subjects, inhaled once daily for 7 days: cGMP in blood samples; assay type: in vivo, human
# Method: Healthy White male subjects, aged 18 to 45 years and with a body mass index (BMI) above/equal 18.5 and below/equal 29.9 kg/m2 were treated in a clinical pharmacological phase I study on seven days with inhaled once daily doses of 480 or 1000 or 2000 μg (2 capsules of 1000 μg) (nominal dose) of dry powder formulations of example 2 or Placebo. The subjects inhaled the drug powder from capsules (see under C, e.g. tables 22 and 23) inserted into a handheld inhalation device by one deep inhalative breath. The dry powder formulation of the drug is dispersed into the airstream and fine particles are transported into the deep parts of the lung where it is intended to cause a vasodilation of the blood vessels in PH patients for a substantial reduction of increased blood pressure in the central pulmonary blood vessels in PAH patients or other subtypes of PH. This effect cannot be shown in subjects with healthy lungs. In addition inhaled drug causes a dilation of the bronchial airways and thus also improves disease states of lung diseases in PH patients with pathological bronchoconstriction. This effect was measured via bodyplethysmography as reduction of Specific Airway Resistance in healthy subjects. After the deep inhalative breath the subjects hold breath for 2 seconds, so that the dry powder drug condenses from the airstream onto the surface of the deeper lung areas where it is deposited close to its site of intended pharmacological action. The drug dissolutes over the day and equilibrates the lung via lining fluid.
# Drug activity in healthy men was controlled in the healthy subjects by analysing blood samples for cGMP, the immediate product of sGC pharmacological activation prior after the first and after the last drug inhalation of the 7 days treatment in comparison to measurements on the pretreatment day for all doses.
# [4] = Storage stability of pseudopolymorphic forms (XRPD); assay type: physicochemical
# [5] = XRPD
# Method: There was no sample preparation.
# 3 g (5S)—{[2-(4-Carboxyphenyl)ethyl][2-(2-{[3-chloro-4′-(trifluoromethyl)biphenyl-4-yl]methoxy}-phenyl)ethyl]amino}-5,6,7,8-tetrahydroquinoline-2-carboxylic acid monohydrate I, (material prepared in analogy to example 3/4) were suspended in 20 mL of methanol. The suspension was stirred at ambient conditions for eight days. The residue was filtered and the resulting solid was dryed at ambient conditions. • water content: 4.8% water • Raman: see table 13, see FIG. 17 • IR: see table 14, see FIG. 24 • XRPD: see table 12, see FIG. 10
structure (smiles),measurement,setting,value
"O=C(O)c1ccc(CCN(CCc2ccccc2OCc2ccc(-c3ccc(C(F)(F)F)cc3)cc2Cl)[C@H]2CCCc3nc(C(=O)O)ccc32)cc1 [Example 2, (5S)—{[2-(4-Carboxyphenyl)ethyl][2-(2-{[3-chloro-4′-(trifluoromethyl)biphenyl-4-yl]methoxy}phenyl)-ethyl]amino}-5,6,7,8-tetrahydroquinoline-2-carboxylic Acid as Monohydrate II]",XRPD after micronization,[1]; example 2 batch,monohydrate II with partial amorphization
same,solid form after micronization,"[1]; example 8a: VA jet mill (diameter 50 mm), 25° C.",transformation from monohydrate II to monohydrate I
same,solid form after micronization,"[1]; example 8b, several conditions, even low stress",partial amorphization
same,total specific airway resistance (means),"healthy male subjects; 480 μg inhaled once daily, 0 D 06 H 00 M",0.800 ± 0.187 kPa/sec
same,total specific airway resistance (means),"healthy male subjects; 2000 μg inhaled once daily, 7 D 06 H 00 M",0.730 ± 0.151 kPa/sec
same,efficacy with regard to PAP reduction and systemic BP reduction,[2]; micronized hydrates,comparable efficacy
same,PAP(mean),"[2]; time 160, per animal",27.8 mmHg
same,measurable plasma concentration persisted for,[3],48 h
same,cGMP over time (means),"cGMP; 480 μg inhaled once daily, 7 D 15 H 00 M",8.56 ± 2.80 nmol/L
same,cGMP over time (means),"cGMP; 480 μg inhaled once daily, 8 D 00 H 00 M",7.20 ± 3.23 nmol/L
same,cGMP over time (means),"cGMP; 480 μg inhaled once daily, 8 D 12 H 00 M",6.20 ± 2.00 nmol/L
same,cGMP over time (means),"cGMP; 480 μg inhaled once daily, 9 D 00 H 00 M",5.64 ± 2.53 nmol/L
same,cGMP over time (means),"cGMP; 480 μg inhaled once daily, −0 D 09 H 00 M",5.60 ± 1.08 nmol/L
same,cGMP over time (means),"cGMP; 480 μg inhaled once daily, −1 D 02 H 00 M",5.40 ± 1.41 nmol/L
same,cGMP over time (means),"cGMP; 1000 μg inhaled once daily, 5 D 00 H 00 M",8.50 ± 2.13 nmol/L
same,cGMP over time (means),"cGMP; 1000 μg inhaled once daily, −0 D 20 H 00 M",4.78 ± 1.37 nmol/L
same,cGMP over time (means),"cGMP; 1000 μg inhaled once daily, −0 D 22 H 00 M",5.10 ± 1.46 nmol/L
same,cGMP over time (means),"cGMP; 2000 μg inhaled once daily, 2 D 00 H 00 M",6.40 ± 2.09 nmol/L
same,cGMP over time (means),"cGMP; 2000 μg inhaled once daily, 3 D 00 H 00 M",10.00 ± 3.51 nmol/L
same,cGMP over time (means),"cGMP; 2000 μg inhaled once daily, 8 D 00 H 00 M",16.00 ± 5.77 nmol/L
same,cGMP over time (means),"cGMP; 2000 μg inhaled once daily, 9 D 12 H 00 M",9.40 ± 3.10 nmol/L
same,cGMP over time (means),"cGMP; 2000 μg inhaled once daily, −0 D 18 H 00 M",4.32 ± 1.33 nmol/L
same,Result (solid form after storage),"[4]; example 7a: brown glass snap on closure, 25° C., 60% relative humidity",monohydrate II
same,Result (solid form after storage),"[4]; example 7b: polyethylene, 25° C., 60% relative humidity",monohydrate I
same,Result (solid form after storage),"[4]; example 7c: polyethylene, 40° C., 75% relative humidity",monohydrate I
same,Result (solid form after storage),"[4]; example 7d: brown glass closed with paper filter disc, 40° C., 75% relative humidity",monohydrate I
O.O.O=C(O)c1ccc(CCN(CCc2ccccc2OCc2ccc(-c3ccc(C(F)(F)F)cc3)cc2Cl)[C@H]2CCCc3nc(C(=O)O)ccc32)cc1 [Example 6f],solid form after drying,[5],went amorphous
